Results taken from patent publication US20180243289A1, “[…] COMPOUNDS FOR TREATING AGITATION” (Concert Pharmaceuticals, Inc., priority 2015, published 2018).
Counter-ions that a name gives are not always drawn.

Key:
CYP2D6 = target: T1, CYP2D6 (Homo sapiens, UniProt P10635); experiment: Metabolic stability in CYP2D6 SUPERSOMES; format: in vitro ADME; conditions: recombinant CYP2D6 SUPERSOMES, 50 pmol/mL CYP2D6 SUPERSOMES, 1 μM test compound, 2 mM NADPH, pH 7.4, 37° C., 0-30 min, read-out: t1/2 ± SD, calculated half-life in SUPERSOMES
T1 construct: purchased GenTest (Woburn, Mass., USA)
Method: Human CYP2D6 SUPERSOMES™ were purchased from GenTest (Woburn, Mass., USA). 7.5 mM stock solutions of test compounds (Compounds 100, 102, and the ethyl ether analog of dextromethorphan (“dextroethorphan”) were prepared in DMSO. The 7.5 mM stock solutions were diluted to 50 μM in acetonitrile (ACN). The 1000 pmol/mL CYP2D6 supersomes were diluted to 62.5 pmol/mL in 0.1 M potassium phosphate buffer, pH 7.4, containing 3 mM MgCl2. The diluted SUPERSOMES™ were added to wells of a 96-well deep-well polypropylene plate in triplicate. 10 μL of the 50 μM test compound was added to the supersomes and the mixture was pre-warmed for 10 minutes. Reactions were initiated by addition of pre-warmed NADPH solution. The final reaction volume was 0.5 mL and contained 50 pmol/mL CYP2D6 SUPERSOMES™, 1 μM test compound, and 2 mM NADPH in 0.1 M potassium phosphate buffer, pH 7.4, and 3 mM MgCl2. The reaction mixtures were incubated at 37° C. and 50 μL aliquots were removed at 0, 5, 10, 20, and 30 minutes and added to shallow-well 96-well plates which contained 50 μL of ice-cold ACN with internal standard to stop the reactions. The plates were stored at 4° C. for 20 minutes after which 100 μL of water was added to the wells of the plate before centrifugation to pellet precipitated proteins. Supernatants were transferred to another 96-well plate and analyzed for amounts of parent remaining by LC-MS/MS using an Applied Bio-systems API 4000 mass spectrometer.
The in vitro half-life (t1/2) for each of the test compounds was calculated from the slopes of the linear regression of % parent remaining (ln) vs incubation time relationship: in vitro t1/2=0.693/k, where k=−[slope of linear regression of % parent remaining (ln) vs incubation time]. Data analysis was performed using Microsoft Excel Software.

[1] = Metabolic stability using human liver microsomes; format: in vitro ADME; conditions: for half-life at 1 μM / Change over non-deuterated compound (Table 3): Table 3 experiment; for half-life at 1 μM: read-out: t1/2 ± SD, calculated half-life in human liver microsomes (Table 3); for Change over non-deuterated compound (Table 3): change of half-life in human liver microsomes vs dextroethorphan
Method: Human liver microsomes (20 mg/mL) were obtained from Xenotech, LLC (Lenexa, Kans.). β-nicotinamide adenine dinucleotide phosphate, reduced form (NADPH), magnesium chloride (MgCl2), and dimethyl sulfoxide (DMSO) were purchased from Sigma-Aldrich.
7.5 mM stock solutions of test compounds were prepared in DMSO. The 7.5 mM stock solutions were diluted to 50 μM in acetonitrile (ACN). The 20 mg/mL human liver microsomes were diluted to 1.25 mg/mL (1 mg/mL final) in 0.1 M potassium phosphate buffer, pH 7.4, containing 3 mM MgCl2. The diluted microsomes (375 μL) were added to wells of a 96-well polypropylene plate in triplicate. 10 μL of the 50 μM test compound was added to the microsomes and the mixture was pre-warmed for 10 minutes. Reactions were initiated by addition of 125 μL of pre-warmed NADPH solution. The final reaction volume was 0.5 mL and contained 1.0 mg/mL human liver microsomes, 1 μM test compound, and 2 mM NADPH in 0.1 M potassium phosphate buffer, pH 7.4, and 3 mM MgCl2. The reaction mixtures were incubated at 37° C., and 50 μL aliquots were removed at 0, 5, 10, 20, and 30 minutes and added to shallow 96-well plates which contained 50 μL of ice-cold ACN with internal standard to stop the reactions. The plates were stored at 4° C. for 20 minutes after which 100 μL of water was added to the wells of the plate before centrifugation to pellet precipitated proteins. Supernatants were transferred to another 96-well plate and analyzed for amounts of parent remaining by LC-MS/MS using an Applied Bio-systems API 4000 mass spectrometer. 7-ethoxy coumarin was used as a positive control.
The in vitro t1/2s for test compounds were calculated from the slopes of the linear regression of % parent remaining (ln) vs incubation time relationship:
in vitro t1/2=0.693/k, where k=−[slope of linear regression of % parent remaining(ln) vs incubation time]
Data analysis was performed using Microsoft Excel Software.

[2] = 1.0 mg/mL human liver microsomes, 1 μM test compound, 2 mM NADPH, pH 7.4, 37° C.

T1 sequence (P10635 whole entry): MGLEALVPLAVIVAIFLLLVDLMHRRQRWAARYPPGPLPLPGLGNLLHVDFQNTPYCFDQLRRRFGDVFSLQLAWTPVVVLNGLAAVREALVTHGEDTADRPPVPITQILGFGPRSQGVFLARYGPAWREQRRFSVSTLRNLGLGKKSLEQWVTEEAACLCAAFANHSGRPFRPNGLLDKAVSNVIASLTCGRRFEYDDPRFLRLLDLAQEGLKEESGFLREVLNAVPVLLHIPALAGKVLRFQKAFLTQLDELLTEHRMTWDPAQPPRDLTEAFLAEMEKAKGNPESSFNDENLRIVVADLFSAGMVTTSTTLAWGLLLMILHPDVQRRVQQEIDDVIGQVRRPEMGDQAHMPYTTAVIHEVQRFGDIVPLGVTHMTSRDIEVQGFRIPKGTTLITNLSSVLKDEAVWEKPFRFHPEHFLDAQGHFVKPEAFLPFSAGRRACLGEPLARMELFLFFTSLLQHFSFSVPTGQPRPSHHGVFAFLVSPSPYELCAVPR

[2H]C([2H])([2H])C([2H])([2H])Oc1ccc2c(c1)[C@]13CCCC[C@@H]1[C@H](C2)N(C)CC3 [Compound 104, (+)-3-(Ethoxy-d5)-17-methyl-(9α,13α,14α)-morphinan hydrochloride]
half-life at 1 μM (CYP2D6): 49.1 ± 4.1 min
half-life at 1 μM [1, 2]: 59.1 ± 2.2 min
Change over non-deuterated compound (Table 3) [1]: 109%

[2H]C([2H])([2H])N1CC[C@@]23CCCC[C@@H]2[C@@H]1Cc1ccc(OC([2H])([2H])C([2H])([2H])[2H])cc13 [Compound 100, (+)-3-(Ethoxy-d5)-17-(methyl-d3)-(9α,13α,14α)-morphinan hydrochloride]
half-life at 1 μM (CYP2D6): 51.3 ± 3.7 min
half-life at 1 μM [1, 2]: 59.2 ± 1.7 min
Change over non-deuterated compound (Table 3) [1]: 109%

COc1ccc2c(c1)[C@]13CCCC[C@@H]1[C@H](C2)N(C)CC3 [Dextromethorphan, (+)-3-methoxy-17-methyl-(9α,13α,14α)-morphinan, reference compound]
half-life at 1 μM (CYP2D6): 1.7 ± 0.3 min

CCOc1ccc2c(c1)[C@@]13CCCC[C@H]1[C@@H](C2)N(C)CC3 [Dextroethorphan, (+)-3-ethoxy-17-methylmorphinan, reference compound]
half-life at 1 μM (CYP2D6): 10.3 ± 2.1 min
half-life at 1 μM [1, 2]: 28.3 ± 0.6 min
t1/2 ± SD, calculated half-life in human liver microsomes (Table 4) ([1]; 1.0 mg/mL human liver microsomes, 1 μM test compound, 2 mM NADPH, pH 7.4, 37° C., Table 4 experiment): 37.1 ± 5.6 min
